Target: MbcT (Rv1989c) (Mycobacterium tuberculosis, UniProt P9WLP9)
Sequence (P9WLP9 whole entry): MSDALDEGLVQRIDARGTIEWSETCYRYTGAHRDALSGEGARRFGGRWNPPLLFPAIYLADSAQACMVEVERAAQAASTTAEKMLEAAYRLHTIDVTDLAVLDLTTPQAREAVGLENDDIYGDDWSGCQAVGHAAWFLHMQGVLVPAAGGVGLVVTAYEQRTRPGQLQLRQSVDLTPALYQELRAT

`NC(=O)c1ccc[n+]([C@@H]2O[C@H](COP(=O)(O)OP(=O)(O)OC[C@H]3O[C@@H](n4cnc5c(N)ncnc54)[C@H](O)[C@@H]3O)[C@@H](O)[C@H]2O)c1` [NAD^+] gave a Km of 110 ± 8 µM.
